Data as given in US20080200439A1, “Methods and compositions for modulating BK channel activity and vasodilation” (University of Tennessee Research Foundation, priority 2006, published 2008).

What was measured:
[1] = system: pressurized resistance cerebral arteries; test: Artery diameter measurement, pressurized rat middle cerebral arteries; settings: for Integral (area under the curve) from the time of drug application until complete washout of effect: change in diameter as a function of time; for Effect remaining after ~6 min of washout (percentual increase from diameter before agent application): when vehicle effect had totally vanished
Protocol: (§1) Artery Diameter Measurement. Middle cerebral arteries were isolated from adult male Sprague-Dawley rats (=250 g) or 8- to 12-week-old β1-knockout and C57BL/6 control mice. Rats and mice were decapitated using a guillotine and sharp scissors, respectively. These procedures were approved by the Institutional Animal Care and Use Committee from The University of Tennessee Health Science Center, an AMLAC-accredited institution. Pressurization of arteries was performed as described (Liu et al., 2004). Endothelium was removed by passing an air bubble into the vessel lumen for 90 sec. Diameter changes were monitored through an inverted microscope (Nikon Eclipse TS100, Nikon Corp., Tokyo, Japan), recorded on camera (Sanyo VCB-3512T, Sanyo Electric Corp., Japan), and transferred to a computer. Diameter data were acquired and analyzed using IonWizard 4.4 software (IonOptics Corp., Milton, Mass., United States of America).
Pressurized arteries were extraluminally perfused with physiological saline solution (PSS) (Liu et al., 2004) at a constant rate of 3.75 ml/min using a peristaltic pump Dynamax RP-1 (Rainin Instrument, Inc., Oakland, Calif., United States of America). At this rate, complete washout of the iberiotoxin (Ibtx) effect required >45 min. To keep basal tone under steady behavior, we shortened this period by increasing flow rate ˜3 times during washout of Ibtx, which sometimes evoked a flow-induced dilation (FIG. 1A). Equal volumes (25 ml) of vehicle- vs. LC-containing solutions were applied at equal, constant rate (see above) to the pressurized arterial segment in the chamber via a gravity system. Drugs were dissolved to make stock solutions (see Chemicals) and diluted in PSS to final concentration.
Chemicals. All chemicals were purchased from Sigma (St. Louis, Mo., United States of America), with the exception of 5β-cholanic acid 3α-ol (LC) (Steraloids, Inc., Newport, R.I., United States of America) and Ibtx (Alomone Labs Ltd., Jerusalem, Israel). On the day of the experiment, an LC stock solution (333 mM) in dimethyl sulfoxide (DMSO) was freshly prepared by sonication for 5 min. For arterial tone experiments, the LC stock was diluted 1/10 in DMSO and further diluted in PSS to render final LC concentration. Solution containing vehicle (0.1% DMSO; V/V) was used as control perfusion. For electrophysiological recordings, the LC stock solution was diluted 1/10 in 95% ethanol and further diluted with bath solution to render final LC concentration (3-1,000 μM). The DMSO/ethanol vehicle (≦0.1/≦0.86% final concentrations) in bath solution was used as control.
Data Analysis. Artery diameter response to each compound is shown as a percentage of the diameter obtained before compound application. Arterial diameter and electrophysiological data were analyzed with IonWizard 4.4 (IonOptics Corp., Milton, Mass., United States of America) and pCLAMP 8.0 (Molecular Devices, Union City, Calif., United States of America). Further analysis, plotting, and fitting were conducted using Origin 7.0 (Originlab Corp., Northampton, Mass., United States of America) and InStat 3.0 (GraphPad Software Inc., San Diego, Calif., United States of America).
After myogenic tone development at 60 mm Hg, intact arteries reached a diameter of 154.4±5.2 μm (n=17). Maximal contraction and dilation were checked by perfusing the vessel with 60 mM KCl at the beginning, and Ca^2+-free solution at the end of each experiment (FIGS. 1A & 1B). In all cases (n=17), application of 45 μM LC, that is, concentrations well below LC's critical micellar concentration (CMC) (≧1 mM under our recording conditions) (Roda et al., 1995) caused a significant increase in peak arterial diameter: +6% on top of a transient increase in diameter caused by vehicle-containing solution (FIGS. 1A-1C). […]

[2] = system: pressurized cerebral arteries from wt mice; test: Artery diameter measurement, pressurized cerebral arteries from wt C57BL/6 mice; set-up: species or system mouse
Protocol: as §1, with “America). […]” for “America).”
(§2) Data Analysis. […] Arterial diameter and electrophysiological data were analyzed with IonWizard 4.4 (IonOptics Corp., Milton, Mass., United States of America) and pCLAMP 8.0 (Molecular Devices, Union City, Calif., United States of America). […]
(§3) To determine the impact of LC targeting of BK β1-subunits on organ function, LC action on the arterial diameter of pressurized cerebral arteries was evaluated from β1-knockout vs. wt C57BU6 mice (controls). […]

[3] = system: pressurized cerebral arteries from β1-knockout (KCNMB1-knockout) mice; test: Artery diameter measurement, pressurized cerebral arteries from BK β1-knockout mice; set-up: species or system mouse; settings: 55 nM
Protocol: as §1, with “America). […]” for “America).”
as §2, §3

[4] = 45 μM, listed as Lithocholic acid

| Compound | Change in diameter caused by LC in the presence of Ibtx ([1]; 45 μM LC + 55 nM Ibtx) [%] | Change in peak diameter caused by LC in the presence of 4-AP (over pre-LC values) ([1]; 45 μM LC + 0.8 mM 4-AP) | Integral (area under the curve) from the time of drug application until complete washout of effect ([1]; 45 μM) | Integral (area under the curve) from the time of drug application until complete washout of effect [1, 4] | Expected increase in cerebral blood flow (CBF) ([1]; 45 μM, from diameter change by a factor of ~3 (Gourley and Heistad, 1984)) [%] | Increase in peak arterial diameter on top of the transient increase caused by vehicle ([1]; 45 μM, intact arteries) | Rise time ([1]; 45 μM, intact arteries with myogenic tone at 60 mm Hg) [s] | Effect remaining after ~6 min of washout (percentual increase from diameter before agent application) ([1]; 45 μM) [%] | Effect remaining after ~6 min of washout (percentual increase from diameter before agent application) [1, 4] [%] | Emax at 45 µM ([1]; Rattus norvegicus, 45 μM, intact arteries, read-out: Maximal effect (% from diameter before compound application)) [%] | Increase in diameter from initial diameter ([2]; 45 μM, wt mouse cerebral arteries) | Decrease in diameter of intact arteries ([1]; 55 nM, bath application) [%] | Decrease from initial diameter (vasoconstriction) ([2]; 55 nM, within 15 min of application, control mice) [%] | Decrease in diameter [3] [%] |
| --- | --- | --- | --- | --- | --- | --- | --- | --- | --- | --- | --- | --- | --- | --- |
| C[C@H](CCC(=O)O)[C@H]1CC[C@H]2[C@@H]3CC[C@@H]4C[C@H](O)CC[C@]4(C)[C@H]3CC[C@]12C [LC, 5β-cholanic acid 3α-ol] | −3.4 | +6% | 18,369±3,964 | 18,369 ± 3,964 | ~30 | +6% | 231.9 ± 21.9 | 109.9±1.7 | 109.9 ± 1.7 | 117 ± 1.9 | +4.4±0.9% | – | – | – |
| iberiotoxin (QFTDVDCSVSKECWSVCKDLFGVDRGKCMGKKCRCYQ; UniProt P24663 1-37, looked up) [Ibtx, reference compound] | – | – | – | – | – | – | – | – | – | – | – | −11.8±3.4 | −8.7±4.2 | −2.25±0.44 |
